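Cells were grown in 96-well plates and exposed to each compound for 48 hours at five concentrations; endpoints were interpolated linearly between bracketing concentrations, or set to the highest concentration if not reached. Abbreviation: GI50, concentration required for 50% inhibition of growth. TGI is the concentration that stops growth completely.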
How the values were obtained:
Experiment in all cases: inhibition of tumour cell growth, NCI panel, 48 h
[1] = test system: 786-0 renal
[2] = test system: A498 renal
[3] = test system: A549 NSCLC
[4] = test system: ACHN renal
[5] = test system: CCRF-CEM leukemia
[6] = test system: COLO 205 colon
[7] = test system: DLD-1 colon
[8] = test system: DMS 114 small cell lung
[9] = test system: DMS 273 small cell lung
[10] = test system: HCC-2998 colon
[11] = test system: HCT-116 colon
[12] = test system: HCT-15 colon
[13] = test system: HL-60(TB) leukemia
[14] = test system: HOP-62 NSCLC
[15] = test system: HOP-92 NSCLC
[16] = test system: HT29 colon
[17] = test system: IGROV1 ovarian
[18] = test system: KM12 colon
[19] = test system: KM20L2 colon
[20] = test system: LOX IMVI melanoma
[21] = test system: LXFL 529 NSCLC
[22] = test system: M14 melanoma
[23] = test system: M19-MEL melanoma
[24] = test system: MALME-3M melanoma
[25] = test system: MOLT-4 leukemia
[26] = test system: NCI-H226 lung
[27] = test system: NCI-H23 lung
[28] = test system: NCI-H460 lung
[29] = test system: NCI-H522 lung
[30] = test system: OVCAR-3 ovarian
[31] = test system: OVCAR-4 ovarian
[32] = test system: OVCAR-5 ovarian
[33] = test system: OVCAR-8 ovarian
[34] = test system: RPMI-8226 leukemia
[35] = test system: SF-268 CNS
[36] = test system: SF-295 CNS
[37] = test system: SF-539 CNS
[38] = test system: SK-MEL-2 melanoma
[39] = test system: SK-MEL-28 melanoma
[40] = test system: SK-MEL-5 melanoma
[41] = test system: SK-OV-3 ovarian
[42] = test system: SN12C renal
[43] = test system: SNB-75 CNS
[44] = test system: SNB-78 CNS
[45] = test system: SR leukemia
[46] = test system: TK-10 renal
[47] = test system: U251 CNS
[48] = test system: UACC-257 melanoma
[49] = test system: UO-31 renal
[50] = test system: CAKI-1 renal
[51] = test system: EKVX NSCLC
[52] = test system: SNB-19 CNS
[53] = test system: SW-620 colon
[54] = test system: UACC-62 melanoma
[55] = test system: BT-549 breast
[56] = test system: DU-145 prostate
[57] = test system: HS 578T breast
[58] = test system: K-562 leukemia
[59] = test system: MCF7 breast
[60] = test system: MDA-MB-231 breast
[61] = test system: MDA-MB-435
[62] = test system: MDA-N
[63] = test system: NCI/ADR-RES ovarian
[64] = test system: PC-3 prostate
[65] = test system: RXF 393 renal
[66] = test system: T-47D breast

O=C(O)CSc1nnc(COc2ccccc2)n1-c1ccccc1
TGI [1]: > 100 µM
TGI [2]: > 100 µM
TGI [3]: > 100 µM
TGI [4]: > 100 µM
TGI [5]: > 100 µM
TGI [6]: > 100 µM
TGI [7]: > 100 µM
TGI [8]: > 100 µM
TGI [9]: > 100 µM
TGI [10]: > 100 µM
TGI [11]: > 100 µM
TGI [12]: > 100 µM
TGI [13]: > 100 µM
TGI [14]: > 100 µM
TGI [15]: > 100 µM
TGI [16]: > 100 µM
TGI [17]: > 100 µM
TGI [18]: > 100 µM
TGI [19]: > 100 µM
TGI [20]: > 100 µM
TGI [21]: > 100 µM
TGI [22]: > 100 µM
TGI [23]: > 100 µM
TGI [24]: > 100 µM
TGI [25]: > 100 µM
TGI [26]: > 100 µM
TGI [27]: > 100 µM
TGI [28]: > 100 µM
TGI [29]: > 100 µM
TGI [30]: > 100 µM
TGI [31]: > 100 µM
TGI [32]: > 100 µM
TGI [33]: > 100 µM
TGI [34]: > 100 µM
TGI [35]: > 100 µM
TGI [36]: > 100 µM
TGI [37]: > 100 µM
TGI [38]: > 100 µM
TGI [39]: > 100 µM
TGI [40]: > 100 µM
TGI [41]: > 100 µM
TGI [42]: > 100 µM
TGI [43]: > 100 µM
TGI [44]: > 100 µM
TGI [45]: > 100 µM
TGI [46]: > 100 µM
TGI [47]: > 100 µM
TGI [48]: > 100 µM
TGI [49]: > 100 µM

CCN(CC)C(=O)c1ccc(C)c(N=NN(C)C)c1
TGI [1]: > 100 µM
TGI [3]: > 100 µM
TGI [4]: > 100 µM
TGI [50]: > 100 µM
TGI [7]: > 100 µM
TGI [9]: > 100 µM
TGI [51]: > 100 µM
TGI [10]: > 100 µM
TGI [11]: > 100 µM
TGI [12]: > 100 µM
TGI [14]: > 100 µM
TGI [15]: > 100 µM
TGI [16]: > 100 µM
TGI [17]: > 100 µM
TGI [18]: > 100 µM
TGI [20]: > 100 µM
TGI [21]: > 100 µM
TGI [22]: > 100 µM
TGI [23]: > 100 µM
TGI [27]: > 100 µM
TGI [28]: > 100 µM
TGI [29]: > 100 µM
TGI [30]: > 100 µM
TGI [31]: > 100 µM
TGI [33]: > 100 µM
TGI [35]: > 100 µM
TGI [36]: > 100 µM
TGI [37]: > 100 µM
TGI [38]: > 100 µM
TGI [39]: > 100 µM
TGI [40]: > 100 µM
TGI [42]: > 100 µM
TGI [52]: > 100 µM
TGI [53]: > 100 µM
TGI [46]: > 100 µM
TGI [47]: > 100 µM
TGI [48]: > 100 µM
TGI [54]: > 100 µM
TGI [49]: > 100 µM

CC[C@@]1(O)C(=O)N(CCN(C)C)Cc2c1cc1n(c2=O)Cc2cc3ccccc3nc2-1
GI50 [1]: 8.09 µM
TGI [1]: > 100 µM
GI50 [2]: 56.2 µM
TGI [2]: > 100 µM
GI50 [3]: 26 µM
TGI [3]: > 100 µM
GI50 [4]: 4.31 µM
TGI [4]: > 100 µM
GI50 [55]: 42.5 µM
TGI [55]: > 100 µM
GI50 [50]: 4.27 µM
TGI [50]: > 100 µM
GI50 [5]: 4.74 µM
TGI [5]: > 100 µM
GI50 [6]: > 91.6 µM
TGI [6]: > 100 µM
GI50 [56]: 4.64 µM
TGI [56]: > 100 µM
GI50 [51]: > 67.9 µM
TGI [51]: > 100 µM
GI50 [10]: 39.7 µM
TGI [10]: > 100 µM
GI50 [11]: 12.4 µM
TGI [11]: > 100 µM
GI50 [12]: 33.1 µM
TGI [12]: > 100 µM
GI50 [13]: 5.4 µM
TGI [13]: > 100 µM
GI50 [14]: 5.21 µM
TGI [14]: > 100 µM
GI50 [15]: > 25.9 µM
TGI [15]: > 100 µM
GI50 [57]: > 100 µM
TGI [57]: > 100 µM
GI50 [16]: 24.6 µM
TGI [16]: > 100 µM
GI50 [17]: 26 µM
TGI [17]: > 100 µM
GI50 [58]: > 41.7 µM
TGI [58]: > 100 µM
GI50 [18]: 12.5 µM
TGI [18]: > 54.1 µM
GI50 [20]: 6.19 µM
TGI [20]: > 50.7 µM
GI50 [22]: 9.31 µM
TGI [22]: > 100 µM
GI50 [24]: > 100 µM
TGI [24]: > 100 µM
GI50 [59]: 14.9 µM
TGI [59]: > 100 µM
GI50 [60]: > 100 µM
TGI [60]: > 100 µM
GI50 [61]: > 100 µM
TGI [61]: > 100 µM
GI50 [62]: > 83.8 µM
TGI [62]: > 100 µM
GI50 [25]: 3.93 µM
TGI [25]: > 100 µM
GI50 [26]: 64.3 µM
TGI [26]: > 100 µM
GI50 [27]: 8.35 µM
TGI [27]: > 100 µM
GI50 [28]: 1.82 µM
TGI [28]: > 83.1 µM
GI50 [29]: 7.05 µM
TGI [29]: > 89 µM
GI50 [63]: 13.7 µM
TGI [63]: > 94.8 µM
GI50 [30]: > 100 µM
TGI [30]: > 100 µM
GI50 [31]: 58.1 µM
TGI [31]: > 100 µM
GI50 [32]: > 100 µM
TGI [32]: > 100 µM
GI50 [33]: 12.5 µM
TGI [33]: > 100 µM
GI50 [64]: 41.3 µM
TGI [64]: > 100 µM
GI50 [34]: > 43.9 µM
TGI [34]: > 100 µM
GI50 [65]: 71.4 µM
TGI [65]: > 100 µM
GI50 [35]: 3.59 µM
TGI [35]: > 100 µM
GI50 [36]: 5.63 µM
TGI [36]: > 100 µM
GI50 [37]: 3.77 µM
TGI [37]: 13.1 µM
GI50 [38]: > 100 µM
TGI [38]: > 100 µM
GI50 [39]: 34.7 µM
TGI [39]: > 92.8 µM
GI50 [40]: > 25.2 µM
TGI [40]: > 56.1 µM
GI50 [41]: > 100 µM
TGI [41]: > 100 µM
GI50 [42]: 8.85 µM
TGI [42]: > 100 µM
GI50 [52]: > 24.9 µM
TGI [52]: > 100 µM
GI50 [43]: 17.4 µM
TGI [43]: > 100 µM
GI50 [45]: 6.24 µM
TGI [45]: > 100 µM
GI50 [53]: 34.6 µM
TGI [53]: > 100 µM
GI50 [66]: 21 µM
TGI [66]: > 100 µM
GI50 [46]: > 100 µM
TGI [46]: > 100 µM
GI50 [47]: 18.9 µM
TGI [47]: > 100 µM
GI50 [48]: > 100 µM
TGI [48]: > 100 µM
GI50 [54]: 7.2 µM
TGI [54]: > 100 µM
GI50 [49]: 9.41 µM
TGI [49]: > 100 µM

Reference: PubChem BioAssay (NCI)
